Source: PubChem BioAssay AID1159557 (GlaxoSmithKline (GSK), 2015)
Calls of active or inactive are those of the source. No rule for the calls is given here.

Tested on: Trypanosoma brucei growth inhibition
Assay: T. brucei growth inhibition (AID 1159557);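 also: parasites exposed to compound for 48 h before the resazurin readout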

Cc1cccc(Nc2nc(-c3ccccn3)cs2)n1
IC50: 1 µM

CNc1cncc(C2CCCN2C(=O)Cc2coc3cc(C)ccc23)n1 (centres undefined)
IC50: > 40 µM (inactive)

O=C(Nc1cccc(Cl)c1)Nc1ccc([N+](=O)[O-])cc1Cl
IC50: 2.5 µM

Cc1ccc(NC(C)C(=O)Nc2ccc(C#N)cc2)cc1S(=O)(=O)N1CCCCC1 (centres undefined)
IC50: 7.9 µM

O=C(Cc1ccccc1)Nc1ccccc1C(=O)Nc1nccs1
IC50: 0.25 µM

c1ccc(Nc2nc(-c3ccccn3)cc(N3CCOCC3)n2)cc1
IC50: 16 µM

c1ccc(CNc2cccc3ccncc23)cc1
IC50: 25 µM

N#Cc1nc(C=Cc2ccccc2)oc1NCc1cccnc1
IC50: 16 µM

COc1ccc2nc(N(Cc3cccnc3)C(=O)C3CCC3)sc2c1
IC50: 20 µM

COc1ccc(C(=O)NC2CCN(CCn3c(=O)ccc4ncc(F)cc43)CC2)cc1Cl
IC50: 0.13 µM

Nc1nc(-c2ccccc2)cc(-c2nc3ncccc3[nH]2)n1
IC50: 10 µM

CCN(CC)c1nc(Nc2ccncc2)nc2ccccc12
IC50: 2.5 µM

COc1ccc(-c2csc(NC(=O)c3ccc([N+](=O)[O-])s3)n2)cc1
IC50: 0.079 µM

COCCn1c(-c2ccccc2)cnc1NCc1ccccc1OC
IC50: 25 µM

Cc1ccc(Nc2nc(-c3ccccn3)cc(N3CCCC(O)C3)n2)cc1 (centres undefined)
IC50: 3.2 µM

CNc1nc(C)nc(N2CCc3cc(C(=O)NCc4ccc(-c5nccn5C)cc4Cl)ccc32)n1
IC50: 13 µM

CC(C)COC(=O)Nc1ccc(N2CCC(CNS(=O)(=O)c3ccccc3)CC2)c(F)c1
IC50: 2.5 µM

Cc1cc(N2CCc3ccccc3C2)nc(Nc2ccc(S(=O)(=O)N3CCOCC3)cc2)n1
IC50: 32 µM

O=C(NC1C(=O)N(c2ccccc2)C1c1cccnc1)c1ccc(Cl)s1 (centres undefined)
IC50: > 40 µM (inactive)

Cc1cc(NC(=O)C2CC2)ccc1OC1CCN(Cc2ccco2)CC1
IC50: 0.13 µM

COc1cc2c(cc1OC)[C@H]1[C@@H](C)c3ccc(OC)c(OC)c3CN1CC2
IC50: 25 µM

CN(C)CCOc1ccc(N2CCN(S(=O)(=O)c3ccc(Cl)cc3)CC2)cc1
IC50: 20 µM

Cc1[nH]n2c(=O)c3c(nc2c1-c1ccc(F)cc1)CCCC3
IC50: 0.4 µM

O=C(Nc1nc(-c2ccc(F)cc2)cs1)c1ccc([N+](=O)[O-])s1
IC50: 0.25 µM

CCOc1cnn(C)c(=O)c1Nc1ccc(C(=O)NCc2ccc(F)cc2)cc1
IC50: > 40 µM (inactive)

Cc1cc(-c2cccc3ccccc23)nc2nc(N)nc(N)c12
IC50: 32 µM

CNc1cncc(C2CCCN2C(=O)Cc2ccc3ccccc3c2)n1 (centres undefined)
IC50: > 40 µM (inactive)

COc1ccc(C2=NCC(CSc3nnc(-c4ccc5c(c4)OCO5)o3)S2)cc1 (centres undefined)
IC50: 10 µM

Cc1[nH]n2c(=O)c3c(nc2c1-c1ccc(Br)cc1)CCCC3
IC50: 0.4 µM

O=C(c1cccc(Cl)c1Cl)N1CCn2c1nc(-c1ccncc1)cc2=O
IC50: 16 µM

CNC(=O)C1Cc2ccccc2N1C(=O)Cc1ccc(OC)cc1 (centres undefined)
IC50: 0.4 µM

C[C@@H](Oc1cc(-n2cnc3ccc(C(O)CO)cc32)sc1C(N)=O)c1ccccc1C(F)(F)F (some centres undefined)
IC50: 0.4 µM

Cc1ccc(CNC2CCN(C[C@@H]3Cn4c(=O)ccc5ccc(=O)n3c54)CC2)cc1F
IC50: 1.6 µM

CC(=O)Nc1ccc(CN2CCC(N3CC(c4ccccc4)(c4ccccc4)OCC3=O)CC2)cc1
IC50: 0.32 µM

COc1ccc(NS(=O)(=O)c2cc(-c3cc(C)[nH]n3)ccc2C)cc1OC
IC50: 0.32 µM

Cn1nc(-c2ccc(NC(=O)Cc3ccccc3Cl)cc2)c2c(N)ncnc21
IC50: 0.4 µM

CCN(CC)S(=O)(=O)c1ccc(OC)c(NC(=O)c2ccc([N+](=O)[O-])s2)c1
IC50: 0.4 µM

COc1ncc(-c2ccc3nccc(-c4ccncc4)c3c2)cc1NS(=O)(=O)C1CC1
IC50: 0.2 µM

Cc1cc(NC(=O)C2CCCCC2)n(-c2nc3c(c(=O)[nH]2)CCC3)n1
IC50: 0.13 µM

CCOc1ccc(Nc2ccc(S(=O)(=O)N3CCN(C)CC3)cc2[N+](=O)[O-])cc1OCC
IC50: 6.3 µM

COc1ccc2c(Cl)c(C(=O)N3CCC3)sc2c1Cl
IC50: 20 µM

COc1ccc2nccc(NC(=O)C3(OC)CCN(CC(O)c4ccc5c(c4)OCCO5)CC3)c2n1 (centres undefined)
IC50: 0.4 µM

O=c1[nH]c(C=Cc2cccc(OCCOc3ccccc3)c2)nc(O)c1[N+](=O)[O-]
IC50: 10 µM

Clc1ccc(CN2CCN(C3=NCCN3)CC2)cc1Cl
IC50: > 40 µM (inactive)

O=C(Nc1ccccc1C(=O)Nc1ccccn1)c1ccco1
IC50: 0.25 µM

CCC(CC)C(=O)Nc1cccc(C(=O)Nc2nnc(C3CCCCC3)s2)c1
IC50: 0.25 µM

O=C(Nc1cccc(Cl)c1)N1CCCCC1c1cccnc1 (centres undefined)
IC50: > 40 µM (inactive)

O=C(CC1(O)C(=O)N(Cc2ccccc2)c2ccc(Br)cc21)c1cccnc1 (centres undefined)
IC50: 0.63 µM

COc1cccc(-c2cc(C(F)(F)F)nc(-n3ccc([N+](=O)[O-])n3)n2)c1
IC50: 32 µM

CCC(c1ccc(F)cc1)n1cncc1-c1cnn(C)c1 (centres undefined)
IC50: > 40 µM (inactive)

CCOc1ccc(NC(=O)c2ccc(NC(=O)NC3CCCCC3)cc2)cc1
IC50: 0.2 µM

CC(C)(C)c1csc(NC(=O)c2ccc([N+](=O)[O-])s2)n1
IC50: 0.2 µM

COc1ncc(-c2ccc3nccc(-c4ccncc4)c3c2)cc1NS(C)(=O)=O
IC50: 0.32 µM

O=C(Nc1nc(-c2ccccn2)cs1)C1CCc2ccccc2C1 (centres undefined)
IC50: 3.2 µM

O=C(N1CCc2ccccc2CC1)C1(C(=O)N2CCC(n3c(=O)[nH]c4ncccc43)CC2)CC1
IC50: > 40 µM (inactive)

O=C(Nc1ccccc1)Nc1nc(-c2ccccn2)cs1
IC50: 1 µM

NC(=O)c1ccc(-c2cccc(OCCN3CCN(C4CCCCC4)CC3)c2)cc1
IC50: 16 µM

O=[N+]([O-])c1ccc(-c2nnn(-c3ccc(Cl)cc3)n2)o1
IC50: 0.32 µM

CN(C)Cc1cccc(Nc2nccc(-c3ccc(NCCN)c(C#N)c3)n2)c1
IC50: 0.05 µM

OC1CCC(Nc2nccc(-c3sc(C4CCOCC4)nc3-c3ccc(F)c(F)c3)n2)CC1 (centres undefined)
IC50: 2 µM

Cc1nn(-c2ccccc2)nc1CNC(=O)CN(Cc1ccccn1)Cc1ccccn1
IC50: 32 µM

Cc1cc(N(C)C)nc(Nc2ccccc2C)n1
IC50: 32 µM

Cc1ccc(Nc2nc(N)nc(CNC(c3nc4ccccc4[nH]3)C(C)C)n2)cc1 (centres undefined)
IC50: 7.9 µM

COc1cc(-c2noc(CC#N)n2)ccc1OC(F)F
IC50: 0.63 µM

COc1ccc([N+](=O)[O-])cc1NC(=O)Nc1cccc(Cl)c1
IC50: 6.3 µM

O=C1NCCn2ccc(Nc3nc(NC4CCC(O)CC4)ncc3Cl)c21 (centres undefined)
IC50: 0.5 µM

CC(C)(C)Nc1nc(Nc2ccc3c(c2)CS(=O)(=O)C3)nc2[nH]ccc12
IC50: 0.79 µM

COc1ccc(-c2cc(C)no2)cc1S(=O)(=O)Nc1ccc(C)c(C)c1
IC50: 20 µM

CC(c1ccccn1)N(C)Cc1nc2ccccc2n1C(C)C (centres undefined)
IC50: 13 µM

CCCn1c(NC(=O)CCn2cc(Br)cn2)nc2ccccc21
IC50: 7.9 µM

COc1cc(Nc2nccc(Nc3onc(C)c3C)n2)cc(S(=O)(=O)C2CCOCC2)c1
IC50: 0.5 µM

COc1ncc(-c2ccc3ncnc(N4CCOCC4)c3c2)cc1NS(C)(=O)=O
IC50: 0.32 µM

NCC(Cc1ccccc1)NC(=O)c1cnc(-c2c[nH]c3ncccc23)s1 (centres undefined)
IC50: 0.4 µM

O=c1cc(NCCCNCc2cc(C(F)(F)F)cs2)[nH]c2ccccc12
IC50: 0.32 µM

CC(Cn1ccnc1)NC(=O)C=Cc1ccc(Cl)cc1 (centres undefined)
IC50: > 40 µM (inactive)

COc1ccc(C2C3CCCCC3(O)CCN2CC(=O)Nc2ccc(Cl)cc2Cl)cc1 (centres undefined)
IC50: 7.9 µM

COc1ccc(C(=O)[C@H]2C[C@@H]2CN(Cc2ccccn2)Cc2ccccn2)cc1
IC50: 6.3 µM

CN(Cc1cc2ccccc2s1)c1ncc2c(N)nc(N)nc2n1
IC50: 32 µM

CS(=O)(=O)c1ccccc1C(=O)N(Cc1ccccc1)c1ccccc1
IC50: 0.4 µM

O=C(c1cc2cc(Cl)ccc2[nH]1)N1CCCCC1c1cccnc1 (centres undefined)
IC50: 25 µM

CCn1c(NC(=O)Cc2ccc(F)cc2)nc2ccccc21
IC50: 3.2 µM

Cc1cccnc1CN1CCN(CCCOc2ccc(-c3ccc(C(N)=O)cc3)cc2)CC1
IC50: 10 µM

CCCNC(=O)Nc1cccc(-c2nc3ncccc3o2)c1
IC50: 0.5 µM

CN(Cc1ccccc1)Cc1nnnn1C1CCN(Cc2ccc(-n3ccnc3)cc2)CC1
IC50: > 40 µM (inactive)

N#Cc1cnc(Nc2cccc(CCN3CCOCC3)c2)nc1Nc1ccccc1C(N)=O
IC50: 0.063 µM

O=C(CSc1nnc(-c2ccc3c(c2)OCO3)o1)N(Cc1ccco1)CC(F)(F)F
IC50: > 40 µM (inactive)

CN(Cc1nc2c(C(=O)N3CCN(Cc4ccccc4)CC3)cccc2[nH]1)C1CCCc2cccnc21 (centres undefined)
IC50: 0.63 µM

NS(=O)(=O)c1ccc(Nc2nccc(-c3cnn4ncccc34)n2)cc1
IC50: 0.079 µM

O=C(CSc1ccc(F)cc1)N[C@@H](Cc1cnc[nH]1)C(=O)NCCc1ccccc1
IC50: > 40 µM (inactive)

Cc1nn(-c2nc(N)nc(-c3ccccn3)n2)c(C)c1Cc1ccccc1
IC50: > 40 µM (inactive)

COc1ccc2ncc(Cl)c(CCN3CC[C@H](NCc4cc5c(cn4)OCS5)[C@@H](O)C3)c2n1
IC50: 0.32 µM

COc1ccccc1-n1c(SCC(=O)Nc2ccc3c(c2)OCO3)nc2c(c1=O)SCC2
IC50: > 40 µM (inactive)

NC(=O)c1ncccc1Nc1nc(NC2CCC(O)CC2)ncc1Br (centres undefined)
IC50: 0.32 µM

C=CCOCC1Cn2nc([N+](=O)[O-])nc2O1 (centres undefined)
IC50: > 40 µM (inactive)

O=C(NCC1CCCCC1)c1cc(=O)c2ccccc2o1
IC50: 1 µM

CN1CCCN(C(=O)c2ccc(N3CCCC3)cc2Cl)CC1
IC50: > 40 µM (inactive)

CCn1nccc1CN(C)C(=O)C=Cc1ccc(Cl)cc1
IC50: 32 µM

COc1ccc(C(=O)Nc2ccc(NC(=O)CO)cc2)cc1
IC50: 0.25 µM

NC(=O)c1cc(NC(=O)c2ccccc2COc2ccccc2)ccc1Cl
IC50: 16 µM

CN(C)S(=O)(=O)c1cccc(CSc2nnc(-c3ccc4c(c3)OCO4)o2)c1
IC50: 32 µM

CC(C)c1nn(-c2nc(N)nc(-c3ccccn3)n2)c(N)c1C1CCCCC1
IC50: 7.9 µM

Clc1ccc(Sc2cnccc2N2CCOCC2)cc1
IC50: 25 µM

O=C(NCc1nnc2n1CCCCC2)c1ccc(-c2ccc(F)cc2)o1
IC50: 0.13 µM

COc1cccc(Nc2cc(C)nc(-c3ccccn3)n2)c1
IC50: > 40 µM (inactive)

Cc1nc2c(-c3n[nH]c(-c4ccccc4N)n3)cccn2c1C
IC50: 1 µM

N#Cc1ccc(S(=O)(=O)N2CCC3(CCN(c4ccccc4)C3=O)CC2)cc1
IC50: > 40 µM (inactive)

Cn1nccc1-c1cc(OC(CN)c2ccccc2)cnc1-c1ccco1 (centres undefined)
IC50: 13 µM

CC(C)(C)C(O)(CCc1ccc(Cl)cc1)Cn1cncn1 (centres undefined)
IC50: > 40 µM (inactive)

COc1cc(C(C)C)c(S(C)(=O)=O)cc1C(=O)N1CCN(c2ccccc2Cl)CC1
IC50: 25 µM
